Assays:
[1] = biological target: Human recombinant monoamine oxidase MAO-A (Homo sapiens (Human), UniProt P21397); assay: Monoamine oxidase assay (kynuramine to 4-hydroxyquinoline fluorescence), MAO-A; format: biochemical
From the text: (§1) Human recombinant monoamine oxidase proteins MAO-A and MAO-B were purchased from Sigma Aldrich. MAOs catalyze the oxidative deamination of primary, secondary and tertiary amines. In order to monitor MAO enzymatic activities and/or their inhibition rate by inhibitor(s) of interest, a fluorescence-based (inhibitor)-screening assay was set up. 3-(2-Aminophenyl)-3-oxopropanamine (kynuramine dihydrobromide, Sigma Aldrich), a non fluorescent compound was chosen as a substrate. Kynuramine is a non-specific substrate for both MAO-A and MAO-B activities. While undergoing oxidative deamination by MAO activities, kynuramine is converted into 4-hydroxyquinoline (4-HQ), a resulting fluorescent product.
(§2) The monoamine oxidase activity was estimated by measuring the conversion of kynuramine into 4-hydroxyquinoline. Assays were conducted in 96-well black plates with clear bottom (Corning) in a final volume of 100 μL. The assay buffer was 100 mM HEPES, pH 7.5. Each experiment was performed in duplicate within the same experiment.
(§3) Clorgyline and Deprenyl (Sigma Aldrich) was used as a control for specific inhibition of MAO-A and MAO-B respectively. […]
(§4) The IC50 values of each inhibitor were calculated with GraphPad Prism Software.

[2] = biological target: Human recombinant LSD1 protein (Homo sapiens (Human), UniProt O60341); assay: Inhibition of LSD1 (Amplex Red H2O2 release, di-methylated H3-K4 peptide substrate)
[3] = biological target: Human recombinant monoamine oxidase MAO-B (Homo sapiens (Human), UniProt P27338); assay: Monoamine oxidase assay (kynuramine to 4-hydroxyquinoline fluorescence), MAO-B; format: biochemical
From the text: as §1, §2, §3, §4

Human recombinant monoamine oxidase MAO-B, sequence (P27338 whole entry): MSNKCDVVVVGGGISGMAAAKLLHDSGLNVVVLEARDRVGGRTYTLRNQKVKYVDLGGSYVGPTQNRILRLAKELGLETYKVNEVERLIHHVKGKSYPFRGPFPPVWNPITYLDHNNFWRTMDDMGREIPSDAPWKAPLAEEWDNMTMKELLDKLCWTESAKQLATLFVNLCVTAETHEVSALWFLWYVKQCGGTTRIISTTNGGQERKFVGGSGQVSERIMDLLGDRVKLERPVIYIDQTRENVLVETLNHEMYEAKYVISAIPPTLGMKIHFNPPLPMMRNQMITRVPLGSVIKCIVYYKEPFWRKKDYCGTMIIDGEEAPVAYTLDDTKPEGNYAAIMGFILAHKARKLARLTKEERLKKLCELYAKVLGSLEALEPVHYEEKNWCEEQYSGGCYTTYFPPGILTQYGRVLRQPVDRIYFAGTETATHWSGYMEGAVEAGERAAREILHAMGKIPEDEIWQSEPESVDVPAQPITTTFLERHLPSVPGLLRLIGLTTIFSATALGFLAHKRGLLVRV
Human recombinant monoamine oxidase MAO-A, sequence (P21397 whole entry): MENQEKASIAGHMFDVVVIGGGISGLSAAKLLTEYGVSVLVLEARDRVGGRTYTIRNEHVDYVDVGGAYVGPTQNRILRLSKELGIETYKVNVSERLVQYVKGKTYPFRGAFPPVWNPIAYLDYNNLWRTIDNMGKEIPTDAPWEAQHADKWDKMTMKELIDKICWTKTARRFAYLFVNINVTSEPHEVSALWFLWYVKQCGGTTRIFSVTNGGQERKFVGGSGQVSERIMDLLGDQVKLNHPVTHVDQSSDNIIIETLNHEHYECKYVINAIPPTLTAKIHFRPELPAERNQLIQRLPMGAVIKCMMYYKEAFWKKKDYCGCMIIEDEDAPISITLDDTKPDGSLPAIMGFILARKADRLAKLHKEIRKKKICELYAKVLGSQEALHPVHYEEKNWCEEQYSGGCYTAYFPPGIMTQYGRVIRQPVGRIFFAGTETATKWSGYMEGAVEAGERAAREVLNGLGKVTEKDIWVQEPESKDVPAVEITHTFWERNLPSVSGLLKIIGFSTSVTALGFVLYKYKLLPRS

IC50 [1]: > 100 µM
IC50 [2]: ~100 µM
IC50 [3]: > 100 µM
SMILES: Oc1ccc(C2CC2NC2CCNCC2)cc1 (stereo not drawn) [Example 23, 4-(2-(piperidin-4-ylamino)cyclopropyl)phenol]

Source: US9487512B2, “(Hetero)aryl cyclopropylamine compounds as LSD1 inhibitors” (ORYZON GENOMICS, S.A., priority 2011, dated 2016)
